# In US11400131B2, “Multi-peptide composition” (King's College London, priority 2015, dated 2022):
# Columns and labels:
# [1] = test system: peripheral blood mononuclear cells; assay: IFN-γ ELISPOT response of Type 1 diabetes patients to nested IA-2 peptides; assay type: cell-based, human; details: nested peptides compared with parental sequences; response positive when SI ≥3; FIG. 1
# Method: Detection of interferon (IFN)-γ by CD4^+ T cells in response to peptide stimulation was carried out using an enzyme-linked immunospot (ELISPOT) assay that has significant discriminative ability for type 1 diabetes in blinded proficiency testing, as previously described (Arif, S. et al. J Clin Invest 2004; 113: 451-463 and Herold, K. C. et al. Diabetes 2009; 58: 2588-2595). Data are expressed as the mean number of spots per triplicate and compared with the mean spot number in the presence of diluent alone (stimulation index; SI). A response is considered positive when the SI is ≥3 using cut-offs determined using receiver-operator characteristic plots as previously described (Arif, S. et al. J Clin Invest 2004; 113: 451-463).
# The results are shown for 3 parental sequences (cross-hatched), and these are compared with shorter nested sequence peptides. Responses represent IFN-γ production by peripheral blood mononuclear cells cultured with each peptide, as detected using an enzyme-linked immunospot assay.
# [2] = test system: proinsulin; assay: Serum proinsulin specific IgG after mono-/multi-PI treatment; assay type: in vivo, HLA-DR4-Tg mice; details: 4 weekly intradermal injections of individual peptide; FIG. 4E-F
# Method: In brief, tolerance to proinsulin was breached in mice by subcutaneous immunisation with 100 μg proinsulin protein emulsified in CFA and treatment with intraperitoneal pertussis toxin immediately and 1 day after immunisation. Mice then received 4 weekly intradermal treatments of 10 μg control-PI or proinsulin mono/multi-PI (C13-32 (SEQ ID NO: 4); C19-A3 (SEQ ID NO: 5); C22-A5 (SEQ ID NO:6)), before subcutaneous immunisation with 100 μg proinsulin protein emulsified in IFA to boost the ongoing autoimmune response (A). Lymph nodes (LNs) were harvested 7 days later and LN cell suspensions were cultured with or without proinsulin protein or peptide (C13-32; C19-A3; C22-A5) for 48 hours in vitro. Proliferation of CD4^+ T cells and IFN-γ production were analysed by CFSE dilution at 96 hours (B) and ELISA at 48 hours (C) in response to in vitro stimulation with 50 μg/mL proinsulin protein and 10 μg/mL peptides (C13-32; C19-A3; C22-A5). Serum levels of proinsulin specific IgG1 were measured at day 42 (D). Percentages of proliferating CD3^+CD4^+CD25^highFoxP3^+ Tregs were measured by flow cytometry in LN cultures at day 42 (E). Data are representative of three independent experiments. *p<0.05, **p<0.01, ***p<0.001; Statistical significance was determined by one-way ANOVA or Student's t test. 15 mice per group in B and C; 5 mice per group D-F.
# Tolerance to proinsulin was breached in mice by subcutaneous immunisation with 100 μg proinsulin protein emulsified in CFA and treatment with intraperitoneal pertussis toxin immediately and 1 day after immunisation. […] Proliferation and cytokine production were analysed by thymidine incorporation and ELISA and the mean±SEM proliferation in response to 50 μg/mL proinsulin (B) and IFN-γ production in response to 50 μg/mL proinsulin (C) or 10 μg/mL proinsulin peptides, in DLN cultures is shown. Percentage of proliferating CD3^+CD4^+CD25^highFoxP3^+ Tregs was measured by flow cytometry in LN cultures at day 42 (E). Serum levels of proinsulin specific IgG1 were measured at day 42 (F). […]
substance,measurement,setting,value
"718-36: fragment of IA-2, comprising residues 718-736 (AYQAEPNTCATAQGEGNIK; listed as Homo sapiens) [Group 718-36]",proportion of Type 1 diabetes patients responding (IFN-γ production),[1],preferential sequences
"855-67: fragment of IA-2, comprising residues 855-867 (YLKNVQTQETRTL; listed as Homo sapiens) [Group 855-67]",proportion of Type 1 diabetes patients responding (IFN-γ production),[1],preferential sequences
"C13-32: fragment of PI, comprising residues C13-C32 (GGGPGAGSLQPLALEGSLQK; listed as Homo sapiens) [Group C13-32]",therapeutic potency of mono-PI in contrast to multi-PI,[2],lower levels of therapeutic potency
"C19-A3: fragment of PI, comprising residues C19-A3 (GSLQPLALEGSLQKRGIV; listed as Homo sapiens) [Group C19-A3]",therapeutic potency of mono-PI in contrast to multi-PI,[2],lower levels of therapeutic potency
"C22-A5: fragment of PI, comprising residues C22-A5 (QPLALEGSLQKRGIVEQ; listed as Homo sapiens) [Group C22-A5]",therapeutic potency of mono-PI in contrast to multi-PI,[2],lower levels of therapeutic potency
